# Experimental data published in the supplement of paper PMC10307832.
# Key:
# Assay in all cases: relative viability (nuclei count vs DMSO), 5 days (fraction); higher = more cells survive
# VE-821 + Dasatinib = compound: CS(=O)(=O)c1ccc(-c2cnc(N)c(C(=O)Nc3ccccc3)n2)cc1 [VE-821] + Cc1nc(Nc2ncc(C(=O)Nc3c(C)cccc3Cl)s2)cc(N2CCN(CCO)CC2)n1 [Dasatinib] (partner 0.075 µM)
# In short: (§1)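 For relative viability, nuclei counts in treated wells were divided by those in vehicle wells. Lung cancer cell lines had been pin-tool dosed in 1536-well plates the day after seeding and cultured for 5 days, then fixed and stained in one step (final 0.05% Triton X-100, 1% formaldehyde, 1 ug/ml Hoechst) and imaged at 4×. Doses were one drug alone or a fixed anchor-drug dose plus five library-drug doses (not always all listed) in √10 steps, and values are duplicate-plate medians.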
# VE-821 + AZD7762 = compound: CS(=O)(=O)c1ccc(-c2cnc(N)c(C(=O)Nc3ccccc3)n2)cc1 [VE-821] + NC(=O)Nc1cc(-c2cccc(F)c2)sc1C(=O)N[C@H]1CCCNC1 [AZD7762] (partner 0.2 µM)
# In short: as §1
# Vismodegib + AZD7762 = compound: CS(=O)(=O)c1ccc(C(=O)Nc2ccc(Cl)c(-c3ccccn3)c2)c(Cl)c1 [Vismodegib] + NC(=O)Nc1cc(-c2cccc(F)c2)sc1C(=O)N[C@H]1CCCNC1 [AZD7762] (partner 0.2 µM)
# In short: as §1
# Ruxolitinib + Olaparib = compound: N#CC[C@H](C1CCCC1)n1cc(-c2ncnc3[nH]ccc23)cn1 [Ruxolitinib] + O=C(c1cc(Cc2n[nH]c(=O)c3ccccc23)ccc1F)N1CCN(C(=O)C2CC2)CC1 [Olaparib] (partner 8 µM)
# In short: as §1
cell line,measurement,setting,value
H3255,relative viability,VE-821 + Dasatinib; first compound 0.08 µM,0.364
same,relative viability,VE-821 + Dasatinib; first compound 0.253 µM,0.403
same,relative viability,VE-821 + Dasatinib; first compound 0.8 µM,0.321
same,relative viability,VE-821 + Dasatinib; first compound 2.53 µM,0.383
same,relative viability,VE-821 + Dasatinib; first compound 8 µM,0.328
same,relative viability,VE-821 + AZD7762; first compound 0.08 µM,0.96
same,relative viability,VE-821 + AZD7762; first compound 0.253 µM,0.927
same,relative viability,VE-821 + AZD7762; first compound 0.8 µM,0.913
same,relative viability,VE-821 + AZD7762; first compound 2.53 µM,0.932
same,relative viability,VE-821 + AZD7762; first compound 8 µM,0.649
same,relative viability,Vismodegib + AZD7762; first compound 0.08 µM,0.951
same,relative viability,Vismodegib + AZD7762; first compound 0.253 µM,0.886
same,relative viability,Vismodegib + AZD7762; first compound 0.8 µM,0.818
same,relative viability,Vismodegib + AZD7762; first compound 2.53 µM,0.785
same,relative viability,Vismodegib + AZD7762; first compound 8 µM,0.853
same,relative viability,Ruxolitinib + Olaparib; first compound 0.08 µM,0.532
same,relative viability,Ruxolitinib + Olaparib; first compound 0.253 µM,0.547
same,relative viability,Ruxolitinib + Olaparib; first compound 0.8 µM,0.539
same,relative viability,Ruxolitinib + Olaparib; first compound 2.53 µM,0.443
same,relative viability,Ruxolitinib + Olaparib; first compound 8 µM,0.457
NCI-H1651,relative viability,VE-821 + Dasatinib; first compound 0.08 µM,0.471
same,relative viability,VE-821 + Dasatinib; first compound 0.253 µM,0.46
same,relative viability,VE-821 + Dasatinib; first compound 0.8 µM,0.424
same,relative viability,VE-821 + Dasatinib; first compound 2.53 µM,0.437
same,relative viability,VE-821 + Dasatinib; first compound 8 µM,0.323
same,relative viability,VE-821 + AZD7762; first compound 0.08 µM,0.457
same,relative viability,VE-821 + AZD7762; first compound 0.253 µM,0.386
same,relative viability,VE-821 + AZD7762; first compound 0.8 µM,0.4
same,relative viability,VE-821 + AZD7762; first compound 2.53 µM,0.463
same,relative viability,VE-821 + AZD7762; first compound 8 µM,0.366
same,relative viability,Vismodegib + AZD7762; first compound 0.08 µM,0.512
same,relative viability,Vismodegib + AZD7762; first compound 0.253 µM,0.454
same,relative viability,Vismodegib + AZD7762; first compound 0.8 µM,0.535
same,relative viability,Vismodegib + AZD7762; first compound 2.53 µM,0.36
same,relative viability,Vismodegib + AZD7762; first compound 8 µM,0.433
same,relative viability,Ruxolitinib + Olaparib; first compound 0.08 µM,0.192
same,relative viability,Ruxolitinib + Olaparib; first compound 0.253 µM,0.179
same,relative viability,Ruxolitinib + Olaparib; first compound 0.8 µM,0.189
same,relative viability,Ruxolitinib + Olaparib; first compound 2.53 µM,0.198
same,relative viability,Ruxolitinib + Olaparib; first compound 8 µM,0.211
NCI-H1734,relative viability,VE-821 + Dasatinib; first compound 0.08 µM,0.51
same,relative viability,VE-821 + Dasatinib; first compound 0.253 µM,0.455
same,relative viability,VE-821 + Dasatinib; first compound 0.8 µM,0.479
same,relative viability,VE-821 + Dasatinib; first compound 2.53 µM,0.425
same,relative viability,VE-821 + Dasatinib; first compound 8 µM,0.33
same,relative viability,VE-821 + AZD7762; first compound 0.08 µM,0.4
same,relative viability,VE-821 + AZD7762; first compound 0.253 µM,0.428
same,relative viability,VE-821 + AZD7762; first compound 0.8 µM,0.334
same,relative viability,VE-821 + AZD7762; first compound 2.53 µM,0.334
same,relative viability,VE-821 + AZD7762; first compound 8 µM,0.184
same,relative viability,Vismodegib + AZD7762; first compound 0.08 µM,0.575
same,relative viability,Vismodegib + AZD7762; first compound 0.253 µM,0.447
same,relative viability,Vismodegib + AZD7762; first compound 0.8 µM,0.552
same,relative viability,Vismodegib + AZD7762; first compound 2.53 µM,0.556
same,relative viability,Vismodegib + AZD7762; first compound 8 µM,0.488
same,relative viability,Ruxolitinib + Olaparib; first compound 0.08 µM,0.605
same,relative viability,Ruxolitinib + Olaparib; first compound 0.253 µM,0.554
same,relative viability,Ruxolitinib + Olaparib; first compound 0.8 µM,0.64
same,relative viability,Ruxolitinib + Olaparib; first compound 2.53 µM,0.56
same,relative viability,Ruxolitinib + Olaparib; first compound 8 µM,0.583
CAL-12T,relative viability,VE-821 + Dasatinib; first compound 0.08 µM,0.499
same,relative viability,VE-821 + Dasatinib; first compound 0.253 µM,0.327
same,relative viability,VE-821 + Dasatinib; first compound 0.8 µM,0.372
same,relative viability,VE-821 + Dasatinib; first compound 2.53 µM,0.443
same,relative viability,VE-821 + Dasatinib; first compound 8 µM,0.243
same,relative viability,VE-821 + AZD7762; first compound 0.08 µM,0.568
same,relative viability,VE-821 + AZD7762; first compound 0.253 µM,0.514
same,relative viability,VE-821 + AZD7762; first compound 0.8 µM,0.512
same,relative viability,VE-821 + AZD7762; first compound 2.53 µM,0.352
same,relative viability,VE-821 + AZD7762; first compound 8 µM,0.239
same,relative viability,Vismodegib + AZD7762; first compound 0.08 µM,0.643
same,relative viability,Vismodegib + AZD7762; first compound 0.253 µM,0.559
same,relative viability,Vismodegib + AZD7762; first compound 0.8 µM,0.607
same,relative viability,Vismodegib + AZD7762; first compound 2.53 µM,0.577
same,relative viability,Vismodegib + AZD7762; first compound 8 µM,0.664
same,relative viability,Ruxolitinib + Olaparib; first compound 0.08 µM,0.627
same,relative viability,Ruxolitinib + Olaparib; first compound 0.253 µM,0.779
same,relative viability,Ruxolitinib + Olaparib; first compound 0.8 µM,0.756
same,relative viability,Ruxolitinib + Olaparib; first compound 2.53 µM,0.673
same,relative viability,Ruxolitinib + Olaparib; first compound 8 µM,0.67
NCI-H1993,relative viability,VE-821 + Dasatinib; first compound 0.08 µM,0.563
same,relative viability,VE-821 + Dasatinib; first compound 0.253 µM,0.503
same,relative viability,VE-821 + Dasatinib; first compound 0.8 µM,0.523
same,relative viability,VE-821 + Dasatinib; first compound 2.53 µM,0.524
same,relative viability,VE-821 + Dasatinib; first compound 8 µM,0.538
same,relative viability,VE-821 + AZD7762; first compound 0.08 µM,0.958
same,relative viability,VE-821 + AZD7762; first compound 0.253 µM,0.669
same,relative viability,VE-821 + AZD7762; first compound 0.8 µM,0.603
same,relative viability,VE-821 + AZD7762; first compound 2.53 µM,0.723
same,relative viability,VE-821 + AZD7762; first compound 8 µM,0.552
same,relative viability,Vismodegib + AZD7762; first compound 0.08 µM,0.751
same,relative viability,Vismodegib + AZD7762; first compound 0.253 µM,0.912
same,relative viability,Vismodegib + AZD7762; first compound 0.8 µM,0.84
same,relative viability,Vismodegib + AZD7762; first compound 2.53 µM,0.768
same,relative viability,Vismodegib + AZD7762; first compound 8 µM,0.712
same,relative viability,Ruxolitinib + Olaparib; first compound 0.08 µM,0.879
same,relative viability,Ruxolitinib + Olaparib; first compound 0.253 µM,0.953
same,relative viability,Ruxolitinib + Olaparib; first compound 0.8 µM,1.42
same,relative viability,Ruxolitinib + Olaparib; first compound 2.53 µM,1.47
same,relative viability,Ruxolitinib + Olaparib; first compound 8 µM,1.02
NCI-H1755,relative viability,VE-821 + Dasatinib; first compound 0.08 µM,0.455
same,relative viability,VE-821 + Dasatinib; first compound 0.253 µM,0.452
same,relative viability,VE-821 + Dasatinib; first compound 0.8 µM,0.372
same,relative viability,VE-821 + Dasatinib; first compound 2.53 µM,0.413
same,relative viability,VE-821 + Dasatinib; first compound 8 µM,0.318
same,relative viability,VE-821 + AZD7762; first compound 0.08 µM,0.434
same,relative viability,VE-821 + AZD7762; first compound 0.253 µM,0.368
same,relative viability,VE-821 + AZD7762; first compound 0.8 µM,0.38
same,relative viability,VE-821 + AZD7762; first compound 2.53 µM,0.323
same,relative viability,VE-821 + AZD7762; first compound 8 µM,0.175
same,relative viability,Vismodegib + AZD7762; first compound 0.08 µM,0.453
same,relative viability,Vismodegib + AZD7762; first compound 0.253 µM,0.568
same,relative viability,Vismodegib + AZD7762; first compound 0.8 µM,0.515
same,relative viability,Vismodegib + AZD7762; first compound 2.53 µM,0.449
same,relative viability,Vismodegib + AZD7762; first compound 8 µM,0.41
same,relative viability,Ruxolitinib + Olaparib; first compound 0.08 µM,0.897
same,relative viability,Ruxolitinib + Olaparib; first compound 0.253 µM,0.812
same,relative viability,Ruxolitinib + Olaparib; first compound 0.8 µM,0.925
same,relative viability,Ruxolitinib + Olaparib; first compound 2.53 µM,0.772
same,relative viability,Ruxolitinib + Olaparib; first compound 8 µM,0.792
NCI-H358,relative viability,VE-821 + Dasatinib; first compound 0.08 µM,0.157
same,relative viability,VE-821 + Dasatinib; first compound 0.253 µM,0.156
same,relative viability,VE-821 + Dasatinib; first compound 0.8 µM,0.183
same,relative viability,VE-821 + Dasatinib; first compound 2.53 µM,0.209
same,relative viability,VE-821 + Dasatinib; first compound 8 µM,0.213
same,relative viability,VE-821 + AZD7762; first compound 0.08 µM,0.627
same,relative viability,VE-821 + AZD7762; first compound 0.253 µM,0.603
same,relative viability,VE-821 + AZD7762; first compound 0.8 µM,0.447
same,relative viability,VE-821 + AZD7762; first compound 2.53 µM,0.41
same,relative viability,VE-821 + AZD7762; first compound 8 µM,0.293
same,relative viability,Vismodegib + AZD7762; first compound 0.08 µM,0.529
same,relative viability,Vismodegib + AZD7762; first compound 0.253 µM,0.57
same,relative viability,Vismodegib + AZD7762; first compound 0.8 µM,0.664
same,relative viability,Vismodegib + AZD7762; first compound 2.53 µM,0.477
same,relative viability,Vismodegib + AZD7762; first compound 8 µM,0.611
same,relative viability,Ruxolitinib + Olaparib; first compound 0.08 µM,0.494
same,relative viability,Ruxolitinib + Olaparib; first compound 0.253 µM,0.544
same,relative viability,Ruxolitinib + Olaparib; first compound 0.8 µM,0.534
same,relative viability,Ruxolitinib + Olaparib; first compound 2.53 µM,0.495
same,relative viability,Ruxolitinib + Olaparib; first compound 8 µM,0.442
